Measurements as given in PubChem BioAssay (NCI).
Where “and” joins values, the source holds several entries; their conditions need not be identical. Equal entries are not always repeated.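 Method: 48-hour compound exposure of cells in 96-well plates, five concentrations, linear interpolation of endpoints. GI50 = concentration required for 50% inhibition of growth. The concentration for full growth arrest is given as TGI.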

Columns and labels:
Assay in all cases: inhibition of tumour cell growth, NCI panel, 48 h
[1] = tested on: CCRF-CEM leukemia
[2] = tested on: HCT-116 colon
[3] = tested on: IGROV1 ovarian
[4] = tested on: LOX IMVI melanoma
[5] = tested on: OVCAR-4 ovarian
[6] = tested on: OVCAR-8 ovarian
[7] = tested on: SK-MEL-2 melanoma
[8] = tested on: UACC-62 melanoma
[9] = tested on: BT-549 breast
[10] = tested on: DU-145 prostate

Compound | GI50 [1] [µM] | TGI [1] | TGI [2] [µM] | GI50 [3] [µM] | TGI [3] | TGI [4] [µM] | GI50 [5] [µM] | TGI [5] | GI50 [6] [µM] | TGI [6] | GI50 [7] [µM] | TGI [7] | TGI [8] | TGI [9] [µM] | TGI [10] [µM] | GI50 [9] [µM] | GI50 [2] [µM] | GI50 [4] [µM] | GI50 [8] [µM]
Cc1c2ccnc(C(N)=O)c2c(C)c2c1[nH]c1ccccc12 | 3.64 | 46.6 µM and > 100 µM | 17.4 | 7.49 | 50 µM and 27.4 µM | 21.2 | 7.56 | 29.7 µM and 93.7 µM | 4.87 | 19.1 µM and > 100 µM | 9.86 | 37.5 µM and 44.1 µM | 15.8 µM and 20.4 µM |  |  |  |  |  | 
COC(=O)CNC(=O)C(CSC(=O)OCC1c2ccccc2-c2ccccc21)NC(=O)CCC(NC(=O)OCC1c2ccccc2-c2ccccc21)C(=O)OC (centres undefined) |  | 38.7 µM | 32.5 |  | 31.6 µM | 21.1 |  | 33.4 µM |  | 30.4 µM |  | 31.1 µM |  | 31.3 | > 100 |  |  |  | 
OCc1cn(Cc2ccccc2)c2ccccc12 |  | > 40.9 µM | > 26.3 |  | 2.09 µM | > 45.3 |  |  |  | 46.9 µM |  | 24.6 µM | 4.98 µM | 23.1 | > 37.2 |  |  |  | 
Nc1ncnc2c1nnn2C1C=CC(CP(=O)(O)O)C1 (centres undefined) |  |  | > 100 |  | > 100 µM | > 100 |  | > 100 µM |  | > 100 µM |  | > 100 µM | > 100 µM |  | > 100 |  |  |  | 
COC1OC(C)C(NC(=O)OCC(Cl)(Cl)Cl)C2OC(C)(C)OC12 (centres undefined) |  | > 100 µM | > 100 |  | > 100 µM |  |  | > 100 µM |  | > 100 µM |  |  | > 100 µM | > 100 | > 100 |  |  |  | 
O=C(/C=C/c1ccc(Cl)cc1)Oc1ccc(C=C2CCC/C(=C\c3ccc(OC(=O)/C=C/c4ccc(Cl)cc4)cc3)C2=O)cc1 |  |  | > 100 |  | > 100 µM | > 100 |  | > 100 µM |  | > 100 µM |  | > 100 µM | > 100 µM | > 100 | > 100 |  |  |  | 
O=[N+]([O-])c1cccc(C2=NN(c3ccccc3)C3c4cc(Br)ccc4OCC23)c1 (centres undefined) |  | > 100 µM | > 100 |  | > 100 µM | > 100 |  |  |  | > 100 µM |  | > 100 µM |  |  |  |  |  |  | 
COc1cc2nc(-c3ccc(Cl)cc3)cc(OCCCN3CCOCC3)c2cc1OC | 3.35 | > 100 µM | > 100 | 0.99 | > 100 µM | 0.593 |  |  | 2.15 | > 100 µM |  |  | 6.35 µM | > 100 |  | 2.59 | 1.59 | 0.217 | 2.26
COC(=O)/C=C(\C)CC/C=C(\C)CCC1OC1(C)C (centres undefined) |  | 21.3 µM | 24.3 |  | 26.9 µM | 11 |  | 22.2 µM |  | 25.7 µM |  | 21.2 µM | 19.8 µM | 21.8 |  |  |  |  | 
CC(C)C(Br)CCC1=CCC(Br)(Br)C1 (centres undefined) |  | > 100 µM | 27.9 |  | 10.8 µM | 3.05 |  | 24.2 µM |  |  |  | 19.3 µM | 19.9 µM | 34.9 | 32.5 |  |  |  | 
S=C(Cc1ccc2c(c1)Sc1ccccc1O2)N1CCOCC1 |  |  | > 100 |  | > 100 µM | > 100 |  | > 100 µM |  | > 100 µM |  | > 100 µM | > 100 µM |  | > 100 |  |  |  | 
COc1cc(C)c(CC/C(C)=C/Cc2cc(O)ccc2O)c(C)c1C |  | > 25 µM | > 25 |  | > 25 µM |  |  | > 25 µM |  | > 25 µM |  | > 25 µM |  |  |  |  |  |  | 
CN(C)C(=O)C(F)(F)C(c1ccc(F)cc1)C1C(=O)N(C)C(=O)N(C)C1=O (centres undefined) |  | > 100 µM | > 100 |  |  | > 100 |  | > 100 µM |  | > 100 µM |  | > 100 µM | > 100 µM | > 100 | > 100 |  |  |  | 
O=C(CCc1cc(O)cc(O)c1)NCCc1cc(OCc2ccccc2)cc(OCc2ccccc2)c1 |  | 50.8 µM | 32.2 |  | 31.4 µM | 32 |  |  |  | 50.6 µM |  | 28.2 µM | 40.2 µM | 35.8 | 33.5 |  |  |  | 
O=c1ccc2ccc(S)cc2o1 |  |  | > 100 |  | > 100 µM | > 100 |  | > 100 µM |  | > 100 µM |  | > 100 µM | > 100 µM | > 100 | > 100 |  |  |  | 
COc1cccc(C2c3cc4c(cc3OC(O)C2C)OCO4)c1OC (centres undefined) |  | 9.6 µM | 12.3 |  | 36.4 µM | 23.5 |  |  |  | 18.7 µM |  | 25.6 µM | 44.7 µM | 65.6 | 26.2 |  |  |  | 
COC(=O)[C@]1(C)CCC[C@@]2(C)C1CC[C@]13C=C(C(C)C)[C@H](CC21)CC3(Cl)C#N (some centres undefined) |  | 60.6 µM | > 100 |  | > 100 µM |  |  | > 100 µM |  | > 100 µM |  |  | > 100 µM | 86 | > 100 |  |  |  | 
Cc1c(N2CCOCC2)nc2ccc(Cl)cc2c1-c1ccccc1 |  | > 100 µM | > 100 |  | > 100 µM | > 100 |  | > 100 µM |  | > 100 µM |  | > 100 µM | > 100 µM |  |  |  |  |  | 
Cc1nc(N)c(N2CCN(C#N)CC2)c(=O)[nH]1 |  | > 100 µM | > 100 |  |  | > 100 |  |  |  | > 100 µM |  | > 100 µM |  | > 100 | > 100 |  |  |  | 
C[C@]12CCC3[C@@H](CCC45OC4C(=O)CC[C@]35C)C1Cc1cnn(-c3ccc(F)cc3)c1N2 (some centres undefined) |  | > 100 µM | 29 |  |  | 31.9 |  |  |  | > 100 µM |  | > 100 µM | 68.9 µM |  |  |  |  |  | 
CC(C)Oc1cccc(N2C(n3ccnc3)=Nc3ccncc3S2(=O)=O)c1 |  |  | 26.8 |  | 29.1 µM | 31.9 |  | 33.7 µM |  | 40.7 µM |  | 26.7 µM | 29.2 µM | 29 | 25 |  |  |  | 
O=C(/C=C/c1ccc(O)c(O)c1)OCCc1ccc2ccccc2c1 |  | 23.8 µM | 17.9 |  | 10.4 µM | 20.8 |  |  |  | 26.6 µM |  | 4.35 µM | 13.9 µM | 15.7 | 24.3 |  |  |  | 
CC1=NN(C(=O)Cc2ccccc2)C(=O)/C1=C\c1ccc(O)cc1 |  | > 100 µM | > 100 |  | > 100 µM | > 100 |  | > 100 µM |  | > 100 µM |  | > 100 µM | > 100 µM |  |  |  |  |  | 
